Measured values reported in ChEMBL document CHEMBL5380814, “Targeting Receptor-Interacting Protein Kinase 1 by Novel Benzothiazole Derivatives: Treatment of Acute Lung Injury through the Necroptosis Pathway” (J Med Chem, 2023).
pKd: −log10 of the molar value. The source made the active and inactive calls. No cut-off for these calls is given here.

Legend:
[1] = target: T1, Receptor-interacting serine/threonine-protein kinase 1 (Homo sapiens, UniProt Q13546); assay: Binding affinity to human wildtype full length RIPK1 (M1 to K305 residues) expressed in bacterial expression system assessed as dissociation constant by kinome scan kd select based qPCR analysis
T1 sequence (Q13546 whole entry): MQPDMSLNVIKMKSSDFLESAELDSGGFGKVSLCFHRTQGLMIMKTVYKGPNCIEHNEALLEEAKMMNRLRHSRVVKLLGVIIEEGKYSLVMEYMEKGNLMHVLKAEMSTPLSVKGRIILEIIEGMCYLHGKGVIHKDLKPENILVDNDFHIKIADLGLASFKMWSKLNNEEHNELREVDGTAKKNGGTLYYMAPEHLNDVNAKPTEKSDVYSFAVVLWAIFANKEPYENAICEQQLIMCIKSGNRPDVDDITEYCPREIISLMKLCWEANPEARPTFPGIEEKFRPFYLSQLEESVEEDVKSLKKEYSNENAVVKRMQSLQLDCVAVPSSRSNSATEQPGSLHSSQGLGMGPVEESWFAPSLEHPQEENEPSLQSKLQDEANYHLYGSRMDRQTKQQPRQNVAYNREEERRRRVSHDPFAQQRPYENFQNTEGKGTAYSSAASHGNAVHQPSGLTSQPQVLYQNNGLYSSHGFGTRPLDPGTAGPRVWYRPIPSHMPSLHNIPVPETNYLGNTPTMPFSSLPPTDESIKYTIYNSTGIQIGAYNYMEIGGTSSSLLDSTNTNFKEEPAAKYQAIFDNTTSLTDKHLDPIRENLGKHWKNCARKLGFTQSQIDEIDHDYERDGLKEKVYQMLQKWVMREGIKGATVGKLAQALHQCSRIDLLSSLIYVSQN

[2] = test system: U-937; assay: Anti-necroptotic activity in human U-937 cells assessed as protection against human TNFalpha/cycloheximide/Z-VAD-FMK induced necroptosis preincubated with compound at 1 to 7 uM for 16 to 24 hrs followed by TCZ stimulation for 12 hrs measured by cell-titre glo luminescent cell viability assay; type: functional, cell-based; details: dose 1-7 µM, time 28-36 hrs
[3] = test system: Mus musculus; assay: In vivo anti-inflammatory activity in NNK induced induced C57BL/6J ALI mouse model assessed as lung injury score pretreated at 25 mg/kg, ip for 1 hr followed by NNK administration relative to disease model (reference value: 5.7 +/- 0.5); type: functional
[4] = test system: Mus musculus; assay: In vivo anti-inflammatory activity in NNK induced induced C57BL/6J ALI mouse model assessed as decrease in inflammatory cell infiltration pretreated at 25 to 100 mg/kg, ip for 1 hr followed by NNK administration by HE staining analysis; type: functional, organism-based; details: dose 25-100 mg/kg
[5] = test system: Mus musculus; assay: In vivo anti-inflammatory activity in NNK induced induced C57BL/6J ALI mouse model assessed as decrease in bronchoalveolar lavage fluid (BALF) IL-6 level pretreated at 25 to 100 mg/kg, ip for 1 hr followed by NNK administration; type: functional, organism-based; details: dose 25-100 mg/kg
[6] = test system: Mus musculus; assay: In vivo anti-necrotptic activity in mTNFalpha induced C57BL/6J SIRS mouse model assessed as protection from body temperature loss pretreated at 20 mg/kg, po for 1 hr followed by mTNFalpha/Z-VAD-FMK administration measured after 45 mins by electric thermometer; type: functional, organism-based; details: time 105.0 min
[7] = target: T2, Receptor-interacting serine/threonine-protein kinase 1 (Homo sapiens) (UniProt Q13546); assay: Inhibition of RIPK1 phosphorylation in TSZ-induced human HT-29 cells assessed as blocking of TSZ-induced necrosome formation at 0.5 uM pretreated with compound for 6 hrs followed by TSZ stimulation for 6 hrs measured by Western analysis; type: cell-based; details: time 12.0 hrs
T2 sequence (whole entry): T1 sequence (Q13546 whole entry)

`CCS(=O)(=O)NC1CCC(C(=O)Nc2nc3cc(F)c(Oc4ccc(F)c(NC(=O)Cc5cccc(C(F)(F)F)c5)c4)cc3s2)CC1` (configuration not stated) was tested, and the pKd [1] was 7.07, the Activity [2] was “Active” and the Activity [3] was 4.3. The Activity [4] was “Active”, the Activity [5] was “Active” and the Activity [6] was “Active”. For the same molecule, the inhibition [7] was “Active”.
